According to ChEMBL document CHEMBL3399998, “Synthesis and biological evaluation of chalcone analogues as protective agents against cisplatin-induced cytotoxicity in kidney cells” (Bioorg Med Chem Lett, 2015):
Calls of active or inactive are those of the source. No cut-off for these calls is given here.

How the values were obtained:
RAW264.7 = assay: Suppression of LPS-induced NO production in mouse RAW264.7 cells treated for 2 hrs and followed by challenged with […] for 24 hrs by griess reagent; type: functional, cell-based
LLC-PK1 [1] = assay: Renoprotective activity against cisplatin-induced cytotoxicity in pig LLC-PK1 cells assessed as recovery of cell viability treated for 2 hrs and followed by challenged with cisplatin for 24 hrs by MTT assay; type: functional, cell-based; conditions: Sus scrofa
LLC-PK1 [2] = assay: Renoprotective activity against cisplatin-induced cytotoxicity in pig LLC-PK1 cells assessed as recovery of cell viability at 125 uM treated for 2 hrs and followed by challenged with cisplatin for 24 hrs by MTT assay; type: functional, cell-based; conditions: Sus scrofa
LLC-PK1 [3] = assay: Reduction in cisplatin-induced MAPK phosphorylation in pig LLC-PK1 cells at 25 uM treated for 2 hrs and followed by challenged with cisplatin for 24 hrs by Western blot analysis; type: cell-based; conditions: Sus scrofa
LLC-PK1 [4] = assay: Renoprotective activity against cisplatin-induced apoptosis in pig LLC-PK1 cells assessed as reduction in cisplatin-induced cleaved caspase-3 at 25 uM treated for 2 hrs and followed by challenged with cisplatin for 24 hrs by Western blot analysis; type: functional, cell-based; conditions: Sus scrofa
LLC-PK1 [5] = assay: Renoprotective activity against cisplatin-induced cytotoxicity in pig LLC-PK1 cells assessed as recovery of cell viability at 25 uM treated for 2 hrs and followed by challenged with cisplatin for 24 hrs by MTT assay; type: functional, cell-based; conditions: Sus scrofa
LLC-PK1 [6] = assay: Renoprotective activity against cisplatin-induced apoptosis in pig LLC-PK1 cells assessed as reduction in cisplatin-induced phosphorylated ERK at 25 uM treated for 2 hrs and followed by challenged with cisplatin for 24 hrs by Western blot analysis; type: functional, cell-based; conditions: Sus scrofa
LLC-PK1 [7] = assay: Renoprotective activity against cisplatin-induced apoptosis in pig LLC-PK1 cells assessed as reduction in cisplatin-induced phosphorylated p38 at 25 uM treated for 2 hrs and followed by challenged with cisplatin for 24 hrs by Western blot analysis; type: functional, cell-based; conditions: Sus scrofa
LLC-PK1 [8] = assay: Renoprotective activity against cisplatin-induced apoptosis in pig LLC-PK1 cells assessed as reduction in cisplatin-induced phosphorylated JNK at 25 uM treated for 2 hrs and followed by challenged with cisplatin for 24 hrs by Western blot analysis; type: functional, cell-based; conditions: Sus scrofa
LLC-PK1 [9] = assay: Renoprotective activity against cisplatin-induced cytotoxicity in pig LLC-PK1 cells assessed as recovery of cell viability at 2 to 25 uM treated for 2 hrs and followed by challenged with cisplatin for 24 hrs by MTT assay; type: functional, cell-based; conditions: Sus scrofa
LLC-PK1 [10] = assay: Renoprotective activity against cisplatin-induced apoptosis in pig LLC-PK1 cells assessed as reduction in cisplatin-induced dead and apoptotic cells at 25 uM treated for 2 hrs and followed by challenged with cisplatin for 24 hrs by annexin V/Tali image-based cytometry; type: functional, cell-based; conditions: Sus scrofa
LLC-PK1 [11] = assay: Renoprotective activity against cisplatin-induced apoptosis in pig LLC-PK1 cells assessed as reduction in cisplatin-induced p53 level at 25 uM treated for 2 hrs and followed by challenged with cisplatin for 24 hrs by Western blot analysis; type: functional, cell-based; conditions: Sus scrofa
LLC-PK1 [12] = assay: Renoprotective activity against cisplatin-induced cytotoxicity in pig LLC-PK1 cells assessed as recovery of cell viability at 25 to 125 uM treated for 2 hrs and followed by challenged with cisplatin for 24 hrs by MTT assay; type: functional, cell-based; conditions: Sus scrofa

Row | SMILES | inhibition (RAW264.7) | Activity (LLC-PK1 [1]) | Activity (LLC-PK1 [2]) | inhibition (LLC-PK1 [3]) | Activity (LLC-PK1 [4]) | Activity (LLC-PK1 [5]) | Activity (LLC-PK1 [6]) | Activity (LLC-PK1 [7]) | Activity (LLC-PK1 [8]) | Activity (LLC-PK1 [9]) | Activity (LLC-PK1 [10]) | Activity (LLC-PK1 [11]) | Activity (LLC-PK1 [12])
1 | COc1cccc(C(=O)/C=C/c2cc(OC)c(OC)cc2Br)c1 | Dose-dependent effect | Dose-dependent effect | – | – | – | – | – | – | – | – | – | – | –
2 | Cc1ccc(/C=C/C(=O)c2ccc(Cl)cc2)cc1 | Dose-dependent effect | Dose-dependent effect | Active | – | – | – | – | – | – | – | – | – | –
3 | COc1cc(Br)c(/C=C/C(=O)c2ccc(Br)cc2)cc1OC | Dose-dependent effect | Dose-dependent effect | – | Active | Active | Active | Active | Active | Active | Active | Active | Active | –
4 | COc1ccc(/C=C/C(=O)c2ccc(Br)cc2)cc1OC | Dose-dependent effect | Dose-dependent effect | Active | – | – | – | – | – | – | – | – | – | –
5 | COc1ccc(C(=O)/C=C/c2cc(OC)c(Br)c(OC)c2)cc1OC | Dose-dependent effect | Dose-dependent effect | – | – | – | – | – | – | – | – | – | – | inactive
6 | COc1cccc(C(=O)/C=C/c2ccc(Cl)cc2)c1 | Dose-dependent effect | Dose-dependent effect | – | – | Active | – | Active | Active | Active | – | Active | Active | –
